Holding throughout (test): relative viability (nuclei count vs DMSO), 5 days (fraction); higher = more cells survive
Compound in the assay “AZ505 + Lapatinib”: C1CCC(CC1)N(CCNCCC2=C3C(=C(C=C2)O)NC(=O)CO3)C(=O)CCNCCC4=CC(=C(C=C4)Cl)Cl [AZ505] + CS(=O)(=O)CCNCc1ccc(-c2ccc3ncnc(Nc4ccc(OCc5cccc(F)c5)c(Cl)c4)c3c2)o1 [Lapatinib] (partner 2 µM)
In outline:
(§1)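 For relative viability, nuclei counts in treated wells were divided by those in vehicle wells. Lung cancer cell lines had been pin-tool dosed in 1536-well plates the day after seeding and cultured for 5 days, then fixed and stained in one step (final 0.05% Triton X-100, 1% formaldehyde, 1 ug/ml Hoechst) and imaged at 4×. Doses were one drug alone or a fixed anchor-drug dose plus five library-drug doses (not always all listed) in √10 steps, and values are duplicate-plate medians.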

Compound in the assay “Dactolisib + Navitoclax”: Cn1c(=O)n(-c2ccc(C(C)(C)C#N)cc2)c2c3cc(-c4cnc5ccccc5c4)ccc3ncc21 [Dactolisib] + CC1(C)CCC(c2ccc(Cl)cc2)=C(CN2CCN(c3ccc(C(=O)NS(=O)(=O)c4ccc(N[C@H](CCN5CCOCC5)CSc5ccccc5)c(S(=O)(=O)C(F)(F)F)c4)cc3)CC2)C1 [Navitoclax] (partner 0.5 µM)
In outline: as §1

Compound in the assay “Dactolisib + Pictilisib”: Cn1c(=O)n(-c2ccc(C(C)(C)C#N)cc2)c2c3cc(-c4cnc5ccccc5c4)ccc3ncc21 [Dactolisib] + CS(=O)(=O)N1CCN(Cc2cc3nc(-c4cccc5[nH]ncc45)nc(N4CCOCC4)c3s2)CC1 [Pictilisib] (partner 1 µM)
The gist of the method:
as §1

Compound in the assay “Dactolisib + Pemetrexed”: Cn1c(=O)n(-c2ccc(C(C)(C)C#N)cc2)c2c3cc(-c4cnc5ccccc5c4)ccc3ncc21 [Dactolisib] + Nc1nc2[nH]cc(CCc3ccc(C(=O)N[C@@H](CCC(=O)O)C(=O)O)cc3)c2c(=O)[nH]1 [Pemetrexed] (partner 0.2 µM)
In outline:
as §1

Take UMC-11: the relative viability with AZ505 + Lapatinib (first compound 0.08 µM) was 0.86; with AZ505 + Lapatinib (first compound 0.253 µM), 0.943; in the assay with AZ505 + Lapatinib (first compound 0.8 µM), 0.901; with AZ505 + Lapatinib (first compound 2.53 µM), 1.11; with AZ505 + Lapatinib (first compound 8 µM) it was 0.976; in the assay with Dactolisib + Navitoclax (first compound 0.002 µM), 0.339. Further, the relative viability with Dactolisib + Navitoclax (first compound 0.006325 µM) worked out at 0.286; with Dactolisib + Navitoclax (first compound 0.02 µM) it was 0.243; with Dactolisib + Navitoclax (first compound 0.06325 µM) it was 0.131; in the assay with Dactolisib + Navitoclax (first compound 0.2 µM) it was 0.124; with Dactolisib + Pictilisib (first compound 0.002 µM), 0.753; with Dactolisib + Pictilisib (first compound 0.006325 µM) it was 0.727. Further, the relative viability amounted to 0.606 with Dactolisib + Pictilisib (first compound 0.02 µM); 0.285 with Dactolisib + Pictilisib (first compound 0.06325 µM); 0.203 with Dactolisib + Pictilisib (first compound 0.2 µM); 0.855 in the assay with Dactolisib + Pemetrexed (first compound 0.002 µM); 0.742 with Dactolisib + Pemetrexed (first compound 0.006325 µM); 0.552 in the assay with Dactolisib + Pemetrexed (first compound 0.02 µM). The relative viability worked out at 0.453 with Dactolisib + Pemetrexed (first compound 0.06325 µM) and 0.26 with Dactolisib + Pemetrexed (first compound 0.2 µM).
